# Assay results taken from patent US20240148728A1, “NOVEL METHOD TO BLOCK IN[…] DEATH AND IL-1BETA SECRETION CAUSED BY […] UV I[…] GENETIC AND CHEMICAL INHIBITORS OF ZAKA AND THE NLRP1 INFLAMMASOME” (priority 2021, published 2024).
# Entries after “also recorded” stand apart in the source; their conditions may differ.
# Legend:
# HB-EGF = HB-EGF expression by RNAseq after TNFα priming; assay type: cell-based, human; conditions: FKPM by RNAseq
# Procedure: Library preparation, QC and high-throughput sequencing were provided by Macrogen, Singapore. RNA isolation and library preparation was carried out as previously described [Robinson et al., Science (2020)].
# 3D organotypic skin = assay: Secreted cytokines/chemokines from 3D organotypic skin (ELISA, Luminex); assay type: cell-based, human
# Procedure: Organotypic cultures were generated by adapting a previously described protocol (Arnette et al., 2016). Briefly, 2 ml of collagen I (4 mg/ml; Corning, #354249) mixed with 7.5×10^5 human fibroblasts were allowed to polymerize over 1-m1 acellular collagen I in 6-well culture inserts (Falcon, #353102) placed in 6-well deep well plate (Falcon, #355467). After 24 hours, 1×10^6 primary human keratinocytes were seeded into the inserts and kept submerged in a 3:1 DMEM (Hyclone, #SH30243.01) and F12 (Gibco, #31765035) mixture with 10% FBS (Hyclone, #SV30160.03), 100 U/ml penicillin-streptomycin (Gibco, #15140122), 10 μM Y-27632 (Tocris, #1254), 10 ng/ml EGF (Sigma-Aldrich, #E9644), 1×10^−10 M cholera toxin (Enzo, #BML-G117-001), 0.4 μg/ml hydrocortisone (Sigma-Aldrich, #H0888), 0.0243 mg/ml adenine (Sigma-Aldrich, #A2786), 5 μg/ml insulin (Sigma-Aldrich, #12643), 5 μg/ml transferrin (Sigma-Aldrich, #T2036) and 2×10^−9 M 3,3′,5′-triiodo-L-thyronine (Sigma-Aldrich, #T6397). After another 24 hours, the organotypic cultures were then raised at the air-liquid interface and fed with the submerged media (without Y-27632 and EGF) below the insert to induce epidermal differentiation. The air-lifting medium was replaced every 2 days and treatments began 10-14 days after airlifting. Organotypic cultures were then harvested 24 hours after treatment and formalin fixed for 24 hours. […]
# [1] = test system: immortalized keratinocytes (N-TERT); assay: Pyroptosis / apoptosis in N-TERT keratinocytes (morphology, ASC-GFP, PI, Annexin V, immunoblot); assay type: cell-based, human; conditions: for mode of cell death (apoptosis / pyroptosis): Annexin V staining and PI inclusion, immunoblot markers
# Text: (§1) The following antibodies were used in this study: cleaved PARP1 (Abclonal, #WH162766), Cleaved CASP3 (Abclonal, #WH154646), Full length GSDMD-FL (Abcam, #ab210070), IL1β p17 specific (CST, #83186S), CARD8 (Abcam, CARD8-NT: ab19485, CARD8-CT: ab241186), DPP9 (Abcam, ab226334), c-Myc (Santa Cruz Biotechnology, #sc-40), HA tag (Santa Cruz Biotechnology, #sc-805), GAPDH (Santa Cruz Biotechnology, #sc-47724), ASC (Adipogen, #AL-177), CASP1 (Santa Cruz Biotechnology, #sc-622), 11_1B (R&D systems, #AF-201), FLAG (SigmaAldrich, #F3165), NLRP1 (R&D systems, #AF6788), IL18 (Abcam ab207324), cleaved GSDMD-NT (Asp275) (Cell Signaling Technology, #36425), RPL31 (Abclonal, #WH162766), CASP7 (Abcam, ab255818), CASP8 (Abcam, ab32397), cleaved CASP3 (Cell Signaling Technology, #9664). All horseradish peroxidase (HRP)— conjugated secondary antibodies were purchased from Jackson Immunoresearch (goat anti-mouse IgG: 115-035-166; goat anti-rabbit IgG: 111-035-144; and donkey anti-goat IgG: 705-005-147). Blue-Native PAGE was carried out using the Native-PAGE system (ThermoFisher) with 10-20 μg of total lysate. For SDS-PAGE using whole cell lysates, cells were resuspended in tris-buffered saline 1% NP-40 with protease inhibitors (Thermo Scientific, #78430). Protein concentration was determined using the Bradford assay (Thermo Scientific, #23200) and […] of protein loaded, a part from cleaved GSDMD-NT visualisation where […] of protein was used. All primary antibodies were used at 250 ng/ml. Visualisation of ASC oligomerization was previously described (Robinson et al., 2020). For analysis of IL1β and IL-18 cleavage in the media by immunoblotting, samples were concentrated using filtered centrifugation (Merck, Amicon Ultra, #UFC5003BIK). Protein samples were run using immunoblotting, and then visualized using a ChemiDoc Imaging system (Bio-Rad). PhosTag SDS-PAGE was carried out using homemade 10% SDS-PAGE gel, with addition of Phos-tag Acrylamide (Wako Chemicals, AAL-107) to a final concentration of 30 μM and manganese chloride(II) (Sigma-Aldrich, #63535) to 60 μM.
# N-TERT-ASC-GFP cells were seeded at a cell density of 3000 cells/well of a 96 black well plate (PerkinElmer, CellCarrier-96 Ultra, #6055300). The next morning cells were treated with chemicals for 6 h or treated in the evening for 24 h before staining. 1 hour before observing the cells on the microscope the cells were stained with 1 μg/ml dilution of propidium iodide (PI, Abcam #ab14083), 10 ng/ml dilution of Hoechst 33342 (Life Technologies, #H21492) or stained with Annexin V Alexa Flour 647 (Life technologies, #A23204) according to the manufacturer's protocol. Stained cells were then imaged on a high content screening microscope (Perkin Elmer Operetta CLS imaging system). Images were then stored and analyzed using the Harmony software (Version 6). Fluorescent and brightfield images acquired on the Operetta high content screening microscope were further analyzed using a scoring system to categorize the percentages of live, apoptotic and pyroptotic cells. For 3 fields of view per treatment the number of live cells per field was counted from the merge of the brightfield and ASC-GFP channels. Only cells which contained ASC-GFP throughout the cytoplasm and nucleus were classed as “live”. The number of pyroptotic cells was calculated using the merge of the brightfield and ASC-GFP channels. Only the cells with GFP specks were classed as “pyroptotic”. The number of apoptotic cells was calculated using the merge of the brightfield, ASC-GFP and Annexin V channels. Cells that were stained positive for Annexin V but without a GFP speck were classified as “apoptotic”. Images of ASC-GFP specks were acquired in 3 random fields in 4′,6-diaminidino-2-phenylindole (DAPI, 358 nm/461) and GFP (469 nm/525 nm) channels using the EVOS microscope (FL Auto M5000, #AM F5000) according to the manufacturer's protocol. […]
# human skin explants = assay: UVB-induced IL1β in human skin explants; conditions: UVB 100 or 250 mJ/cm^2, harvest 24 hours later
# Text: Waste surgical skin tissues from abdomen and breast were collected with appropriate informed consent of the patients and sent to the Asian Skin Biobank (ASB worldwidewebdota-stardotedudotsg/sris/technology-platforms/asian-skin-biobank) at the Skin Research Institute of Singapore (SRIS) (under A*STAR IRB 2020-209). Fresh skin tissue was cleaned in solutions of HBSS with decreasing concentrations of Penicillin, Streptomycin and Fungizone. Then 8-mm skin biopsies were punched and submerged in culture media. Skin explants were immediately irradiated with UVB or treated with VbP.
# For UVA and UVB irradiation experiments, cells were seeded 24 hours prior to irradiation, and washed once in phosphate buffered saline pH 7.4 before being exposed to indicated dose of irradiation using a BIO-SUN microprocessor controlled, cooled UV irradiation system (BIO-SUN, Vilber). After exposure, PBS was replaced by keratinocyte medium and cells were incubated for indicated time.
# To measure secreted cytokine and chemokine levels a human IL1β enzyme linked immunosorbent assay (ELISA) kit (BD, #557953), human IL-18 ELISA kit (MBL, #7620) or an Immune Monitoring 65-Plex Human ProcartaPlex Panel (EPX650-10065-901) were used according to manufacturer's protocols. […]
# NLRP1^DR = assay: NLRP1 PYD-DR1 / NLRP1^DR phosphorylation (GFP fusion, immunoblot, PhosTag SDS-PAGE) in N-TERT cells; assay type: cell-based, human; conditions: NLRP1 KO N-TERT cells expressing GFP-tagged NLRP1^DR; various kinase inhibitors
# Text: as §1
# Cells were directly harvested using Laemmli buffer, lysed with an ultrasonicator, and loaded into the Phos-tag gel to run. Once the run was completed, the polyacrylamide gel was washed in transfer buffer with 10 mM EDTA twice, subsequently washed without EDTA twice, blotted onto 0.45 μm PVDF membranes (Bio-rad), blocked with 3% milk, and incubated with primary and corresponding secondary antibodies.
# ZAKα = ZAKα (Homo sapiens, UniProt Q9NYL2); conditions: cited from earlier work
# ASC = assay: Phosphorylation of inflammasome adaptor ASC; assay type: cell-based, human; conditions: data not shown
# [2] = test system: 3D human organotypic skin; assay: 3D organotypic skin histology and cleaved GSDMD-NT immunostaining; assay type: cell-based; conditions: immunostaining
# Procedure: Organotypic cultures were generated by adapting a previously described protocol (Arnette et al., 2016). Briefly, 2 ml of collagen I (4 mg/ml; Corning, #354249) mixed with 7.5×10^5 human fibroblasts were allowed to polymerize over 1-m1 acellular collagen I in 6-well culture inserts (Falcon, #353102) placed in 6-well deep well plate (Falcon, #355467). After 24 hours, 1×10^6 primary human keratinocytes were seeded into the inserts and kept submerged in a 3:1 DMEM (Hyclone, #SH30243.01) and F12 (Gibco, #31765035) mixture with 10% FBS (Hyclone, #SV30160.03), 100 U/ml penicillin-streptomycin (Gibco, #15140122), 10 μM Y-27632 (Tocris, #1254), 10 ng/ml EGF (Sigma-Aldrich, #E9644), 1×10^−10 M cholera toxin (Enzo, #BML-G117-001), 0.4 μg/ml hydrocortisone (Sigma-Aldrich, #H0888), 0.0243 mg/ml adenine (Sigma-Aldrich, #A2786), 5 μg/ml insulin (Sigma-Aldrich, #12643), 5 μg/ml transferrin (Sigma-Aldrich, #T2036) and 2×10^−9 M 3,3′,5′-triiodo-L-thyronine (Sigma-Aldrich, #T6397). After another 24 hours, the organotypic cultures were then raised at the air-liquid interface and fed with the submerged media (without Y-27632 and EGF) below the insert to induce epidermal differentiation. The air-lifting medium was replaced every 2 days and treatments began 10-14 days after airlifting. Organotypic cultures were then harvested 24 hours after treatment and formalin fixed for 24 hours. Fixed tissues were then embedded into wax for histological purposes.
# For immunohistochemistry staining of cleaved N-terminal GSDMD a previously established protocol with modifications was used [Wang et al., Cell 180:941-955.e20 (2020)]. Briefly, 5 μm formalin fixed and paraffin embedded sections were deparaffinized and rehydrated through a series of alcohol. The sections were then rehydrated in an antigen retrieval buffer (Dako, Tris-EDTA, pH 9). Sections were then blocked in goat serum for 20 mins at RT before primary antibody incubated overnight at 4° C. Immunostaining was visualised using DAB substrate and chromogen detection kit (Dako, #K3468). Sections were then counterstained with Myer's Hematoxylin.
# N-TERT cells = assay: Secreted IL1β / inflammasome activation in N-TERT cells; assay type: cell-based, human; conditions: ZAKα KO N-TERT cells
# Procedure: To measure secreted cytokine and chemokine levels a human IL1β enzyme linked immunosorbent assay (ELISA) kit (BD, #557953), human IL-18 ELISA kit (MBL, #7620) or an Immune Monitoring 65-Plex Human ProcartaPlex Panel (EPX650-10065-901) were used according to manufacturer's protocols. Further analysis of Luminex or ELISA profiling of samples was performed using heatmap and PCA analysis on Clustervis (biitdotcsdotutdotee/clustvis/) [Somani et al., Proceeding of SSIC (2019)].
# as §1
# Sequence of ZAKα (Q9NYL2 whole entry): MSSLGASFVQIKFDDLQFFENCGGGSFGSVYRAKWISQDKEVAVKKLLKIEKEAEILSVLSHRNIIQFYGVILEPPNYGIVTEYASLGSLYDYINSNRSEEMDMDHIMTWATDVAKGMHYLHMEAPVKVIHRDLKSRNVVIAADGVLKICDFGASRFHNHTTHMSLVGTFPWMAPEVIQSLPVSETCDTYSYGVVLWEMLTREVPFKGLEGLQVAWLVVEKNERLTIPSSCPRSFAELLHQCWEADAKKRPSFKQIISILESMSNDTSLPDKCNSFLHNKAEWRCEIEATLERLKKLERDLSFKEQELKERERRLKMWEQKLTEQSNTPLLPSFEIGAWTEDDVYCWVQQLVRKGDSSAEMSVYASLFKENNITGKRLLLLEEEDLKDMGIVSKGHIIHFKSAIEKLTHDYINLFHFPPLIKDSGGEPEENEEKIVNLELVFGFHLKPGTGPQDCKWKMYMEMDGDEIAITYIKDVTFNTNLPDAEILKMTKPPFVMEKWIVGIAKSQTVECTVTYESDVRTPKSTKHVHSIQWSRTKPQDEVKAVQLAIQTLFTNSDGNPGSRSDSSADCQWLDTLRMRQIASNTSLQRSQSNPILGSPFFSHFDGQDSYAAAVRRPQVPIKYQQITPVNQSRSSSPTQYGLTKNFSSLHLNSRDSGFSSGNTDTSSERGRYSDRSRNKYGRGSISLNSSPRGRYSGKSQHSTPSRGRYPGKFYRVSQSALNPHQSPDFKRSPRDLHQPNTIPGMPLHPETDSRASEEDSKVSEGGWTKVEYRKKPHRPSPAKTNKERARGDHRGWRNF
molecule,measurement,setting,value
TNFα,increased expression of DT entry receptor HB-EGF,HB-EGF,> 5 fold
"COc1ccc(C[C@H](N)C(=O)N[C@H]2[C@@H](O)[C@H](n3cnc4c(N(C)C)ncnc43)O[C@@H]2CO)cc1 [PURO, Puromycin]",chemokine/cytokine profile versus untreated,3D organotypic skin,very few cytokines/chemokines differed
same,mode of cell death (apoptosis / pyroptosis),[1],kills cells exclusively via apoptosis
"C=CC(=O)N1CCCC(c2ccnc(Nc3cc(C(=O)Nc4cc(-n5cnc(C)c5)cc(C(F)(F)F)c4)ccc3C)n2)C1 (stereo not drawn) [M443, 4-methyl-N-[3-(4-methylimidazol-1-yl)-5-(trifluoromethyl)phenyl]-3-[[4-(1-prop-2-enoylpiperidin-3-yl)pyrimidin-2-yl]amino]benzamide]",effect on UVB-induced IL1β / NLRP1 activation,human skin explants,reduction in UVB-induced IL1β; also recorded: effective at blocking UVB induced NLRP1 activation and IL1beta release
same,effect on ANS-triggered NLRP1 hyperphosphorylation,NLRP1^DR,can effectively block ANS-triggered NLRP1 hyperphosphorylation
"COc1cc(O)c2c(c1)/C=C/C[C@H](O)[C@H](O)C(=O)/C=C\C[C@H](C)OC2=O [5-Z-7-oxozeanol, 5Z-7-Oxozeaenol]",potency against ZAKα compared with TAK1,ZAKα,almost the same potency as its reported target TAK1
same,effect on ANS-triggered NLRP1 hyperphosphorylation,NLRP1^DR,can effectively block ANS-triggered NLRP1 hyperphosphorylation
"CC(C)[C@H](N)C(=O)N1CCC[C@H]1B(O)O [VbP, Talabostat]",phosphorylation of ASC,ASC,not phosphorylated
same,cleaved GSDMD N-terminal fragment at the cell membrane,[2],prominently enriched at the cell membrane
same,IL1β secretion and pyroptotic death in ZAKα KO cells,N-TERT cells,remained fully sensitive
same,mode of cell death (apoptosis / pyroptosis),[1],exclusively triggers pyroptosis
same,time to induce detectable pyroptosis,"[1]; wild-type N-TERT cells, PI positive cells",at least 5 hours
